Assay results reported in article PMC5711933, “Intracellular biomass flocculation as a key mechanism of rapid bacterial killing by cationic, amphipathic antimicrobial peptides and peptoids” (Scientific Reports, 2017).
Non-standard residues stand in square brackets, D forms with d. Residues, ends and D or L forms follow the SMILES beside them. Nspe = C[C@H](NCC(=O)O)c1ccccc1; Nlys = NCCCCNCC(=O)O

What was measured:
[1] = tested on: Bioluminescent P. aeruginosa; format: cell-based, Pseudomonas aeruginosa; settings: 12.5 µM, LB, 37 °C, 10 min; average of three independent experiments with two replicates each
Description: The decrease in bioluminescence at 37 °C was measured for a range of concentrations from 0 – 100 μM (Supp. Figs. S6 and S7).
Bioluminescent P. aeruginosa [73] was grown at 37 °C in Luria-Bertani (LB) broth. […] In a 96-well plate, 50 µL of P. aeruginosa solution (1 × 10^6 CFU/mL) was added to 50 µL of antimicrobial solution, and the bioluminescence was measured using an IVIS imaging system (a Xenogen product from Caliper Life Sciences, Hopkinton, MA) at 10 min intervals for 2 h. The reported values are the average of three independent experiments with two replicates each.

E. coli ATCC 35218 [2] = assay: Bacterial count by plating after 1-hour treatment, before SEM sample preparation; format: cell-based; settings: 1 hour in PBS, control 5 × 10^5 CFU/mL
Description: E. coli was treated with 10 μM peptide or peptoid for 1 hour in phosphate-buffered saline (PBS). […] We used 10 μM peptide/peptoid for all samples since it is near the MICs of the majority of the oligomers.
Before fixation, aliquots of each samples were serially diluted and plated on agar to determine the concentration of live bacteria remaining after the 1-hour treatment. […] (1) SEM samples were treated in PBS (as discussed above), whereas MIC assays are performed in cation-adjusted Mueller-Hinton broth. AMPs and ampetoids are known to interact with ions in the media (for example, when switching from plain Mueller-Hinton broth to cation-adjusted Mueller-Hinton broth)[1], so differences in activity may be due to changes in media composition. (2) the treatments were for one hour only, whereas MICs are determined after 16 hours of growth. […] (3) Some of these compounds may cause inhibition of growth without causing bacterial cell death (i.e., they are bacteriostatic—which is what the MIC indicates—rather than bactericidal—which is determined by plating and counting colonies). […]
Overnight cultures of E. coli ATCC 35218 were centrifuged for 10 min and 2500 × g at room temperature, then resuspended in PBS. […] Bacterial concentrations of the diluted suspensions were calculated from their OD590 values using optical density curves derived from pre-determined concentrations. […]

Erythrocytes = assay: Hemolysis assay; format: cell-based; settings: human erythrocytes in PBS pH 7.4, 1 h at 37 °C, A350; three independent replicates (two for LL-37 and fowlicidin-1)
Description: The plate was then centrifuged at 1200 g for 15 min, 100 μL of the supernatant from each well transferred to a fresh microtiter plate, and A350 measured.

E. coli ATCC 35218 [3] = assay: Bacterial count by plating after treatment, before TEM sample preparation; format: cell-based
Description: E. coli ATCC 35218, grown overnight at 35 °C in Mueller-Hinton broth (MHB), were resuspended in 1X (150 mM) PBS, pH 7.4, and diluted to a concentration of 1 × 10^8 CFU/mL. Aqueous peptide/peptoid stock solutions were added to 1 mL aliquots of the suspension to the desired final concentration. After 1 hour, small volumes of each sample were serially diluted, plated, and incubated overnight at 35 °C, to be counted the following day. The remaining volume of each sample was centrifuged, and the pellet resuspended and enrobed in 5–10 µL of 2% low-melting agarose (gelling temperature 25° ± 5 °C) then drawn up into the tip of a Pasteur pipette. The solidified rods were extruded into fixative (2% glutaraldehyde, 2% paraformaldehyde, 50 mM PBS, pH 7.4). […] 50 nm thin sections of embedded samples were cut using a diamond knife, stained for 5 min in 5% aqueous uranyl acetate, then rinsed in H2O. Sections were examined in a JEOL 1230 TEM. Experimental conditions were each repeated in at least two independent trials. For each replicate of each sample, bacteria across the thin section were first surveyed to determine morphological characteristics representative of that sample, then images were captured of at least five bacteria displaying those morphologies with an emphasis on clean (i.e., orthogonal) transverse and/or longitudinal sections. Each image shown is thus representative of the ultrastructural characteristics observed in bacteria throughout a given sample and between replicates.

[4] = RP-HPLC elution (% ACN) as measure of hydrophobicity; format: physicochemical; settings: chromatographic hydrophobicity; gradient of 5–95% acetonitrile (ACN) over 45 minutes, C18 column, 0.2 mL/min; average of three replicates
E. coli ATCC 35218 [5] = format: cell-based; settings: CAMHB, 35 °C, 16 h, final 5 × 10^5 CFU/mL; reproducible between three independent replicates
Description: MICs were determined according to CLSI M7-A6 protocols in a 96-well microtiter plate. In test wells, 50 μL bacterial inoculum (1 × 10^6 CFU/ml) in cation-adjusted Mueller-Hinton broth (CAMHB) was added to 50 μL peptoid solution in CAMHB (prepared by 1:2 serial dilutions). Positive controls contained 50 μL inoculum and 50 μL CAMHB without peptoid. […] MIC values reported were reproducible between three independent experimental replicates, each consisting of two parallel trials.

EGFP-Luc plasmid = assay: DNA retardation assay (gel electrophoresis); format: binding; settings: EGFP-Luc plasmid in TBS, complexes 20 min at room temperature, 1–2% agarose gel
Description: DNA retardation was analyzed by gel electrophoresis. Peptoid/peptide-DNA complexes were formed by adding 10 µL of peptide/peptoid solution of varying concentrations to 10 µL DNA solution (EGFP-Luc plasmid in Tris-buffered saline (TBS) buffer), and the resulting solution was mixed by gentle aspiration. Complexes were incubated for 20 min at room temperature. After complex formation, 20 µL of each sample were loaded onto a 1–2% agarose gel in Tris/borate/EDTA (TBE) buffer, which ran at 120 V for 15 min. DNA bands on the gel were visualized under UV light by ethidium bromide staining.

With `C[C@@H](c1ccccc1)N(CC(N)=O)C(=O)CN(C(=O)CN(CCCCN)C(=O)CN(C(=O)CN(C(=O)CN(CCCCN)C(=O)CN(C(=O)CN(C(=O)CN(CCCCN)C(=O)CN(C(=O)CN(C(=O)CNCCCCN)[C@@H](C)c1ccccc1)[C@@H](C)c1ccccc1)[C@@H](C)c1ccccc1)[C@@H](C)c1ccccc1)[C@@H](C)c1ccccc1)[C@@H](C)c1ccccc1)[C@@H](C)c1ccccc1` [compound 1] (H-[Nlys][Nspe][Nspe][Nlys][Nspe][Nspe][Nlys][Nspe][Nspe][Nlys][Nspe][Nspe]-NH2) the “Decrease in bioluminescence within 10 min” value [1] was ~ 99.9%, the “SEM: Bacterial count after 10 µM treatment (% of control)” value (E. coli ATCC 35218 [2]) was 40 % of control and the “HD10 (hemolytic dose; concentration for 10% hemolysis)” value (Erythrocytes) was 14 µM. The “HD50 (hemolytic dose; concentration for 50% hemolysis)” value (Erythrocytes) was 62 µM, the “TEM: Bacterial count after 10 µM treatment (% of control)” value (E. coli ATCC 35218 [3]; 10 µM, 1 hour in PBS pH 7.4, control 1 × 10^8 CFU/mL) was 0.2 % of control and the “Bacteria remaining after 5-min treatment” value (E. coli ATCC 35218 [3]; 100 µM, 5 minutes) was 1 × 10^4 CFU/mL. For the same compound, the “Bacteria remaining after 5-min treatment (% of bacteria in the control)” value (E. coli ATCC 35218 [3]; 100 µM, 5 minutes) was 0.01%, the “TEM: Bacterial count after 100 µM treatment (% of control)” value (E. coli ATCC 35218 [3]; 100 µM, 1 hour in PBS pH 7.4, control 1 × 10^8 CFU/mL) was 0 (0) % of control and the “Bacterial killing after 15-min, 30-min, and 60-min treatments” value (E. coli ATCC 35218 [3]; 100 µM, 15, 30 and 60 minutes) was “all bacteria were killed”. For the same compound, the “% ACN at RP-HPLC elution” value [4] was 64.2%, the “E. coli ATCC 35218 MIC” value (E. coli ATCC 35218 [5]) was 6.3 µM and the “Retardation assay: mass of compound required to completely retard migration of 1 µg of DNA” value (EGFP-Luc plasmid) was 3.0 µg.
